Experimental data from US10537559B2, “Isonitramine compound and composition containing same for preventing or treating metabolic diseases” (INJE UNIVERSITY INDUSTRY-ACADEMIC COOPERATION FOUNDATION, priority 2015, dated 2020).

Columns and labels:
[1] = system: HIT-T15 cells; assay: Insulin secretion of HIT-T15 cells (insulin ELISA); format: cell-based; settings: FIG. 7
Description: To identify effects of isonitramine derivatives on insulin secretion, a type of insulin cells, e.g., HIT-T15 cells, were obtained by the Korean Cell Line Back, and then, subcultured. In detail, the HIT-T15 cells were cultured in a RPMI1640 medium (available from invitrogen. Co, USA) supplemented with 10% fetal bovine serum (FBS, available from invitrogen. Co, New Zealand 10091-148), 100 mu/ml of penicillin, and 100 μg/ml of streptomycin, under humidification conditions of a temperature of 37° C. and 5% CO2.
Insulin secretion influenced by (+)-isonitramine was measured according to the recommended method using insulin ELISA kit (Cat.10-1113-01, available from Mercodia Company). First, the HIT-T15 cells were loaded to a 96-well plate at a concentration of 5×10^4 cells/well, and cultured until reaching 70% to 80% cell confluency in an incubator at a temperature of 37° C. in a CO2 incubator. Then, the cells were pre-treated with 500 μM alloxan, which induces a pancreatic-specific toxic response, for 30 minutes. Afterwards, (+)-isonitramine was added to each well, and cultured for 24 hours. The culture solution was collected therefrom, and subjected to a centrifugation at a speed of about 15,000 rpm for 3 minutes. […] The changes resulted from the termination of the reaction were measured by using an ELISA-reader (VERSA max, micro-reader, MDS. Co, USA) at a wavelength of 450 nm.

[2] = system: adiponectin; assay: RT-PCR mRNA expression in adipocytes: adiponectin; format: cell-based, mouse; settings: FIG. 3, β-actin internal control
Description: (§6) According to the manufacturer's instructions, total cell RNA of the undifferentiated adipocytes and differentiated adipocytes was extracted by using Trizol (available from Invitrogen).
(§7) The RNA (4 μg) was reverse-transcribed into cDNA by using M-MLV reverse transcriptase (available from Promega). Accordingly, the expression of peroxisome proliferator-activated receptor γ (PPARγ), CCAAT/enhancer binding protein-α (C/EBPα), adipocyte protein 2 (aP2), lipoprotein lipase (LPL), and adiponectin was each confirmed.
(§8) The variable number of cycles was used to identify the amplification occurred in the linear phase.
(§9) In the PCR amplification, β-actin was used as an internal control group. The PCR products were separated by using 2.0% agarose gel, followed by being visualized by RedSafe nucleic acid staining (available from Intron, Korea) and UV irradiation.

[3] = system: LPL; assay: RT-PCR mRNA expression in adipocytes: LPL; format: cell-based, mouse; settings: FIG. 3, β-actin internal control
Description: as §6, §7, §8, §9

[4] = molecular target: T1, porcine α-amylase (Sus scrofa, UniProt P00690); assay: Inhibitory effect on porcine α-amylase; format: biochemical; settings: FIG. 4; 100 μM, pH 6.8, starch substrate
T1 construct: purchased Sigma
T1 sequence (P00690 16-511): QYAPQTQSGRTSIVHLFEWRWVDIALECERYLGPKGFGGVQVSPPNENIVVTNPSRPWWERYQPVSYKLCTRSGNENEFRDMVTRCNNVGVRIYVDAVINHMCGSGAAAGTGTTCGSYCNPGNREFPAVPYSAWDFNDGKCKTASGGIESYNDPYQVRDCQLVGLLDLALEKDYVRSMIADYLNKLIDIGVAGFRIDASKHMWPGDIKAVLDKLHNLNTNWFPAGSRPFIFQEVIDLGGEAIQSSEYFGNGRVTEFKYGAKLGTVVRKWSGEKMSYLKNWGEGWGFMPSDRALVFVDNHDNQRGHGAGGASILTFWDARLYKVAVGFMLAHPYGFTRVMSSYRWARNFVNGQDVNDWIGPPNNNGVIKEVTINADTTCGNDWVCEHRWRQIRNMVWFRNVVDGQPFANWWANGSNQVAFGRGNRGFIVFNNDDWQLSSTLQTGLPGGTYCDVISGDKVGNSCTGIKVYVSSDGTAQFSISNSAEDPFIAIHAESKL
Description: (§1) A glucose assay kit was purchased for use from Youngdong Company (Seoul, Korea). In addition, from Sigma Company, porcine α-amylase, yeast α-glucosidase, 3,5-dinitrosalicylic acid (DNS), p-nitrophenol glucoside (pNPG), rat intestinal acetone powder, sucrose, and maltose were purchased. Soluble starch was obtained from Samchun Chemical Company (Seoul, Korea), and Acarbose was purchased from Tokyo chemical industry Company (Tokyo, Japan).
5 μl of α-amylase (0.1 U/mL) was diluted with 50 mM phosphate buffer (pH 6.8), and the diluted solution was mixed with each of 100 μM (+)-isonitramine (1) or Compound 2 to 6 of Example 1. In addition, as a positive control group, Acarbose was mixed at the same concentration with (+)-isonitramine (1). […]
25 μl of DNS was added to the cooled reaction solutions, and a color reaction was induced at a temperature of 100° C. for 5 minutes. […] The solutions in which the color reaction was induced were transferred to a 96-well plate, and absorbance thereof was measured at a wavelength of 540 nm by using a 96-well microplate reader.
Here, the inhibitory effect was calculated according to Equation 1: Enzymatic inhibitory activity=(1−Ax/A0)×100% [Equation 1] • Ax indicates an absorbance value of […] upon treatment of isonitramine

[5] = system: aP2; assay: RT-PCR mRNA expression in adipocytes: aP2; format: cell-based, mouse; settings: FIG. 3, β-actin internal control
Description: as §6, §7, §8, §9

[6] = system: 3T3-L1 mouse preadipocytes; assay: Adipocyte differentiation of 3T3-L1 preadipocytes (Nile red staining); format: cell-based; settings: FIG. 2A
Description: (§2) 3T3-L1 mouse preadipocytes were cultured in a Dulbecco's modified Eagle's medium (DMEM) supplemented with 10% newborn calf serum (Gibco BRL, NY, USA) and antibiotics (100 U/ml penicillin and 100 μg/ml streptomycin, Gibco BRL, NY, USA) in an incubator under humidification conditions of a temperature of 37 r and 5% CO2.
(§3) Afterwards, the cultured 3T3-L1 mouse cells were treated with 0.5 mM 1-methyl-3-isobutylxanthine purchased from Sigma (St. Louis, Mo.), 1 μM dexamethasone, 1 μg/mL insulin, and 10% fetal bovine serum (FBS, Gibco BRL), and then, cultured for 2 days to induce differentiation. After 2 days, the cultured medium was replaced with a fresh DMEM supplemented with 10% FBS and 1 μg/mL insulin. For the next 4 days, the cultured medium was replaced with a fresh DMEM supplemented with 10% FBS every day.
The undifferentiated or differentiated cells were washed three times with phosphate-buffered saline (PBS), and then, fixed with 4% […] (PFA) at room temperature for 1 hour. Afterwards, the resulting cells were washed three times with PBS, and stained with 0.5 μg/ml of nile red (available from Sigma, St. Louis, Mo.) for 10 minutes. Following the completion of the staining, the resulting cells were washed with PBS, and the nuclei thereof were stained again with 4′-6-diamidino-2-phenylindole, (DAPI, available from Invitrogen). […]

[7] = system: 3T3-L1 mouse preadipocytes; assay: Cytotoxicity in adipocyte differentiation experiment; format: cell-based; settings: FIG. 3; adipocytes
[8] = system: PPARγ; assay: RT-PCR mRNA expression in adipocytes: PPARγ; format: cell-based, mouse; settings: FIG. 3, β-actin internal control
Description: as §6, §7, §8, §9

[9] = system: phosphoenolpyruvate carboxykinase (PEPCK); assay: PEPCK expression in zebrafish embryo (RT-PCR); format: in vivo; settings: FIG. 9, with 100 mM cAMP and 100 mM dexamethasone, 48 hours
Description: (§4) In the experiment performed to verify the effect on the amount of insulin secretion, the zebrafish embryo underwent 96 hour post-fertilization (hpf) was exuviated, and then, treated with isonitramine for 48 hours. In the experiment performed to verify the effect on gluconeogenesis, 100 mM cyclic AMP (cAMP) and 100 mM dexamethasone (DEX) were simultaneously treated with isonitramine, and then, cultured for 48 hours.
(§5) From the cultured embryo above, TRIzol (available from Invitrogen) was used to isolate mRNA, and the isolated RNA was synthesized to cDNA by using iScript cDNA Synthesis Kit (available from Bio-Rad). Afterwards, to amplify the cDNA, primers listed in Table 2 were used, wherein each primer was purchased from Bioneer.

[10] = system: metabolic enzymes essential for carbohydrate absorption; assay: Selectivity of inhibition of carbohydrate metabolism enzymes (FIG. 4); format: biochemical; settings: 100 μM, as compared with Compound 4 to 6
Description: The mixtures were pre-cultured at a temperature of 37° C. for 10 minutes, and 25 μl of 0.5% starch solution was added thereto, followed by being cultured at a temperature of 37° C. for 10 minutes. Then, the mixtures were cultured again at a temperature of 100° C. for 5 minutes to stop the reaction, and the mixtures were cooled.
25 μl of DNS was added to the cooled reaction solutions, and a color reaction was induced at a temperature of 100° C. for 5 minutes. The resulting solutions were cooled again. The solutions in which the color reaction was induced were transferred to a 96-well plate, and absorbance thereof was measured at a wavelength of 540 nm by using a 96-well microplate reader.
Here, the inhibitory effect was calculated according to Equation 1: Enzymatic inhibitory activity=(1−Ax/A0)×100% [Equation 1] • Ax indicates an absorbance value of a control group • A0 indicates an absorbance value of a test group upon treatment of isonitramine

[11] = system: 3T3-L1 mouse preadipocytes; assay: Analysis of triglyceride concentration in differentiated adipocytes; format: cell-based; settings: FIG. 2B; adipocytes differentiated 8 days with 100 μM or 500 μM
Description: as §2, §3
The concentration of triglyceride in the cells was measured by using a triglyceride reagent purchased from Sigma and a free glycerol reagent.
The adipocytes were differentiated for 8 days with (+)-isonitramine 1 at a concentration of 100 μM or 500 μM, in a 6-well plate.
To analyze the concentration of triglyceride in the cells, the cells were washed with PBS, and then, lysed with 100 μl of a lysis buffer. […]
Following the completion of the culturing, the absorbance of the cells was measured by using a spectrophotometer at a wavelength of 540 nm.

[12] = system: C/EBPα; settings: FIG. 3; RT-PCR, β-actin internal control
Description: as §6, §7, §8, §9

[13] = system: zebrafish larvae; assay: Zebrafish toxicity (FIG. 5); format: in vivo; settings: zebrafish model
[14] = molecular target: T2, yeast α-glucosidase (Saccharomyces cerevisiae, UniProt P53341); assay: Inhibitory effect on yeast α-glucosidase (pNPG substrate); format: biochemical; settings: FIG. 4; 100 μM, pH 5.6, pNPG substrate
T2 construct: purchased Sigma
Description: as §1
5 μl of […] (0.1 U/mL) was diluted with 50 mM sodium acetate buffer (pH 5.6), and the diluted solution was mixed with each of 100 μM (+)-isonitramine (1) or Compound 2 to 6 of Example 1. In addition, as a positive control group, Acarbose was mixed at the same concentration with (+)-isonitramine (1).
The mixtures were pre-cultured at a temperature of 37° C. for 10 minutes, and 25 μl of pNPG was added thereto, followed by being cultured at a temperature of 60° C. for 10 minutes. Then, 1N NaOH was added thereto to stop the reaction.
Afterwards, the resulting solution in which a color reaction was induced was transferred to a 96-well plate, and absorbance thereof was measured at a wavelength of 405 nm by using a 96-well microplate reader.

[15] = system: zf preproinsulin (insa); assay: Insulin expression in zebrafish embryo (RT-PCR); format: in vivo; settings: FIG. 8; zebrafish embryo 96 hpf treated 48 hours
Description: as §4, §5

[16] = system: zebrafish; assay: Postprandial hyperglycemia in diabetic-inducible (streptozocin) zebrafish; format: in vivo; settings: FIG. 6; STZ-injected zebrafish fed flake mixed with compound at various concentrations for 1 hour
Description: The zebrafish was anesthetized by placing it in water at a temperature of 8° C. for 20 seconds.
For intraperitoneal injection, 350 mg/kg of a solution of 0.9% streptozocin (available from Sigma, St. Louis, Mo.) in 0.09% NaCl solution was injected with a syringe having 25 gauge needle (available from Trajan Scientific, Australia). Here, to a control group of zebrafish, the same amount of PBS was injected intraperitoneally. After the completion of the injection, the test and control groups of zebrafish were bread at a temperature of 24° C.
The zerafish was subjected to intraperitoneal injection of STZ or PBS three times (350 mg/kg) for a week. After the final injection, the zerafish was fed with commercial flake food (available from Tetrabits tropical flakes, Tetra, Germany) for 5 days.
After fasting for 24 hours, the zebrafish to which PBS was injected was fed with commercial flask food, and the zebrafish to which STZ was injected was fed with flake mixed with (+)-isonitramine (1) at various concentrations, for 1 hour. Afterwards, plasma blood of each zebrafish was enzymatically measured by using a glucose trinder kit.

T2 sequence (P53341 whole entry): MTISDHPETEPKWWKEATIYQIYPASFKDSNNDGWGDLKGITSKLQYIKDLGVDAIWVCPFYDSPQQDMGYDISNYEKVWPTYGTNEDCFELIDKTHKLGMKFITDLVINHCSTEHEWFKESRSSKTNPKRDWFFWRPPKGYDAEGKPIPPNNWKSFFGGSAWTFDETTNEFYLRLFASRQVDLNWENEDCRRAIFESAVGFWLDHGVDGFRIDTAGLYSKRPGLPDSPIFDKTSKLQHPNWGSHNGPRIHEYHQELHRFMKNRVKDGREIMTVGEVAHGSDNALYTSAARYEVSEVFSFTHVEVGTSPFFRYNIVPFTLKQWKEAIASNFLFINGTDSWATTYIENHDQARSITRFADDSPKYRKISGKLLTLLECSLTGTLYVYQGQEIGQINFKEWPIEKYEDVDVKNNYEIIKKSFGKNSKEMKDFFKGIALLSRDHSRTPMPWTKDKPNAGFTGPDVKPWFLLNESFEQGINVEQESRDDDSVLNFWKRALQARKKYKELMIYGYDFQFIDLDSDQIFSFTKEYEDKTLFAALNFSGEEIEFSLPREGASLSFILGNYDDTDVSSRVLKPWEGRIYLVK

| Structure (SMILES) | insulin secretion ([1]; HIT-T15 cells treated with 500 μM alloxan, normal state 33.39±1.12 ng/mL (n=4)) [ng/mL] | mRNA expression of adiponectin [2] | mRNA expression of LPL [3] | inhibition of α-amylase [4] | mRNA expression of aP2 [5] | differentiation of 3T3-L1 mouse preadipocytes into mature adipocytes [6] | cytotoxicity [7] | mRNA expression of PPARγ [8] | inhibitory effect on the expression of PEPCK [9] | selective inhibitory effects on metabolic enzymes essential for carbohydrate absorption [10] | concentration of triglyceride [11] | insulin secretion ([1]; HIT-T15 cells pre-treated with 500 μM alloxan 30 minutes, then compound 24 hours) | mRNA expression of C/EBPα [12] | cardiovascular toxicity [13] | developmental toxicity [13] | inhibition of α-glucosidase [14] | expression of insulin [15] | blood glucose [16] |
| --- | --- | --- | --- | --- | --- | --- | --- | --- | --- | --- | --- | --- | --- | --- | --- | --- | --- | --- |
| O=C1NC(=O)C(=O)C(=O)N1 [alloxan, reference compound] | 18.92 ± 0.43 | – | – | – | – | – | – | – | – | – | – | – | – | – | – | – | – | – |
| O[C@@H]1CCCC[C@]12CCCNC2 [(+)-isonitramine (1), (+)-isonitramine] | – | weakened | weakened | hardly inhibited | weakened | inhibited the differentiation | without cytotoxicity | inhibited | significantly increased in proportion to the concentration | selective inhibitory effects | decreased the concentration of triglyceride in a concentration-dependent manner | increasing the insulin secretion in a concentration-dependent manner | inhibited | no | no | inhibiting | increased | reduction of blood glucose in a concentration-dependent manner |
